In US8877158B2, “Targeting agent to newly formed blood vessels” (FUJIFILM Corporation, priority 2009, dated 2014):
Values belong to the substance of their own block, whether it stands above or below them.

Experiments:
[1] = in vivo, 24 h; cited from earlier work
neovascular site = assay: Inhibition of accumulation of R-Gel in neovascular site by previous administration of cyclo-RGDfK; type: in vivo, mouse; conditions: for fluorescence intensity in the neovascular site: average±S.D.
Description: In order to evaluate whether accumulation of R-Gel in neovascular site is targeting caused by the same mechanism as that of circular RGD peptide cyclo-RGDfK, whether accumulation of R-Gel would be inhibited by previously administering a large amount of cyclo-RGDfK was examined. Unlabeled cyclo-RGDfK was dissolved in a concentration of 1 mg/ml in ultrapure water, and thereafter, 100 μL of the obtained solution was administered to a mouse via caudal vein administration. Thirty minutes later, 100 μL of Cy7-R-Gel was administered thereto via caudal vein administration. As a control, instead of cyclo-RGDfK, 100 μL of PBS (phosphate buffer) was administered to a mouse via caudal vein administration, and thirty minutes later, 100 μL of Cy7-R-Gel was administered thereto via caudal vein administration. After completion of the administration, fluorescence intensity in the neovascular site was measured over time. When the fluorescence intensity was measured 1 hour after the administration, the fluorescence intensity in the PBS administration group was 98063583±1200251 (average±S.D.), whereas the fluorescence intensity in the cyclo-RGDfK administration group was 81431011±1373625 (average±S.D.). […] Likewise, in the measurement 3 hours after the administration, the fluorescence intensity in the PBS administration group was 88124139±3438695 (average±S.D.), whereas the fluorescence intensity in the cyclo-RGDfK administration group was 60269975±1267782 (average±S.D.). In the measurement 24 hours after the administration, the fluorescence intensity in the PBS administration group was 22196881±2549892 (average±S.D.), whereas the fluorescence intensity in the cyclo-RGDfK administration group was 12763810±1927458 (average±S.D.).

[2] = test system: tumor site and tumoral neovascular site; assay: Imaging of tumor site and tumoral neovascular site of cancer-bearing animal (Colon-26 homograft); type: in vivo, BALB/c mouse; conditions: cyclo-RGDfK administered 30 minutes before Cy7-R-Gel
Description: As a tumor-bearing animal model, a cancer-bearing animal was produced. As an animal, BALB/c mouse (female, 6-week-old; Japan SLC, Inc.) was used. Tumor was produced using a cancer cell homograft model. As cancer cells, Colon-26 (which were cells derived from BALB/c mouse colon cancer) was used, and these cells were cultured in large scale in an RPMI1640 medium containing 10% fetal bovine serum. For the culture, a T-225 flask was used. Using EDTA-containing 0.25% trypsin, the growing cancer cells were removed from the bottom of the flask, and a culture supernatant was then removed by centrifugation. Thereafter, the solution was replaced with PBS (phosphate buffer), and the cell concentration was then counted using a cell counter. […]
200 μL of the Cy7-R-Gel or Cy7-animal gelatin produced in (6) above was administered to the cancer-bearing animal produced in (9) above via caudal vein administration, and a fluorescence imaging experiment was then carried out from the outside of the body of the animal.
For detection of a fluorescence signal, measurement, and imaging, Lumino image analyzer LAS5000 (a trial product of Fujifilm Corporation) was used. A visible light image and a fluorescence image were simultaneously taken, and the two images were then overlapped to identify a site from which fluorescence was emitted. […]

αVβ3 integrin = target: T1, αVβ3 integrin (Homo sapiens, UniProt P05106+P06756); assay: Inhibition of αVβ3-integrin-mediated HUVEC adhesion by anti-αV antibody; type: cell-based; conditions: coating 0.2 μg/well; antibody-treated vs untreated HUVECs
T1 construct: many αVβ3 integrin molecules are permanently expressed on the surfaces of HUVECs; host or cells: HUVEC (normal human umbilical vein endothelial cells)
Description: In order to identify binding between R-Gel and HUVECs as αVβ3-integrin-mediated binding, experimentation was conducted to determine whether or not R-Gel-to-cell adhesion would be inhibited by blocking αVβ3 integrin with an anti-αV antibody in the R-Gel-to-cell adhesiveness tests conducted in (7) above.
Specifically, cell adhesion experiments were conducted as described in (7) above. Experiments were conducted using the R-Gel-coated plate and the fibronectin-coated plate at a coating concentration of 0.2 μg/well. The prepared HUVECs were incubated with anti-human αV monoclonal antibodies (MAB1980: CHEMICON) at a sufficient concentration at 37° C. for 30 minutes, and they are described as “antibody-treated HUVECs”. On the other hand, the prepared HUVECs were incubated with the addition of the same amount of PBS at 37° C. for 30 minutes, and they are described as ““untreated HUVECs”. Cells were inoculated on plates with addition of a solution (100 μL/well) prepared in a manner such that it contained antibody-treated HUVECs or untreated HUVECs at a concentration of 1,000,000 cells/mL. The time for cell adhesion was determined to be 1 hour at 37° C. as in the case of (7) above. Quantitative determination of the number of cells was carried out by DNA assay as in the case of (7) above.

HUVECs = assay: HUVEC cell adhesiveness test on protein-coated plates (DNA assay, 1-cell area); type: cell-based, human
Text: HUVECs (normal human umbilical vein endothelial cells; Takara Bio Inc.) were used as vascular endothelial cells. It is known that many αVβ3 integrin molecules are permanently expressed on the surfaces of HUVECs. By testing cell adhesiveness of R-Gel to HUVECs, binding of R-Gel to vascular endothelial cells activated by newly formed blood vessels can be elucidated. Also, binding of R-Gel to αVβ3 integrin that has been reported to be highly expressed at newly formed blood vessel sites can be elucidated.
For culture of HUVECs, endothelial cell basic medium-2 (containing no serum) (EBM™-2) and endothelial cell medium kit-2 (2% FBS) (EGM™-2 BulletKit™) were used (Takara Bio Inc.). Upon subculture and removal of cells, an EDTA-containing 0.25% trypsin solution was used. HUVECs that had been allowed to proliferate to a sufficient amount in a T-75 flask were removed from the bottom surface of the flask, followed by centrifugation for removal of the supernatant. Then, the resultant was washed with the above endothelial cell basic medium-2 containing the endothelial cell medium kit 2. Centrifugation was performed again to remove the supernatant. […] The number of living cells was counted using cell counter. […]
DNA assay was performed for quantitative determination of the number of cells on the obtained plates. […]

T1 sequence (P06756 31-889 limits assumed): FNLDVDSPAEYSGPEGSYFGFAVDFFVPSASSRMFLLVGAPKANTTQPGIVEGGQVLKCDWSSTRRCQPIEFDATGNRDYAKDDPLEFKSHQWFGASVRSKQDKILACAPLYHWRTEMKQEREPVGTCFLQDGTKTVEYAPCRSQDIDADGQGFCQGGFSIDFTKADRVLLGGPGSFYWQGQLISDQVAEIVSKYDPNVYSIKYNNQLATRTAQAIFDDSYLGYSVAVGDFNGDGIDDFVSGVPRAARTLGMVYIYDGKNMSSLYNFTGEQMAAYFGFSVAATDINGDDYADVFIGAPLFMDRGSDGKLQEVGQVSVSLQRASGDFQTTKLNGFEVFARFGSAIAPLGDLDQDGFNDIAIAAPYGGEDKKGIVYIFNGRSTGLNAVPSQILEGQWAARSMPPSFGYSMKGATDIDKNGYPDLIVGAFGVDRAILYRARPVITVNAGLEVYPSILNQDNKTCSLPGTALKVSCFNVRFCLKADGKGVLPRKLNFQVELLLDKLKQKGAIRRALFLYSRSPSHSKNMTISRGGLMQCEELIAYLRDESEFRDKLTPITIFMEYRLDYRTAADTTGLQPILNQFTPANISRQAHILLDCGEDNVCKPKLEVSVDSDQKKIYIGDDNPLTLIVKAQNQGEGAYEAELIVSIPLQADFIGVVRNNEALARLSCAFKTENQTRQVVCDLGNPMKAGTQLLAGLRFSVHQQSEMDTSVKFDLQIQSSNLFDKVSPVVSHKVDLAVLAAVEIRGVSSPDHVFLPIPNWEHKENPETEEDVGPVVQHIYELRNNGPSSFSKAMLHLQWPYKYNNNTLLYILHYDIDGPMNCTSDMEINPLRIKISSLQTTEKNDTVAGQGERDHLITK
T1 sequence (P06756 891-1048 partner limits assumed): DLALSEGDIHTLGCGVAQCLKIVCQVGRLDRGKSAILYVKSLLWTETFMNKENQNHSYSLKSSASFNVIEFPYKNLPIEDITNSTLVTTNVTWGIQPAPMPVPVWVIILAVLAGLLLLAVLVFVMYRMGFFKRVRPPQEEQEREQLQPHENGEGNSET
T1 sequence (P05106 27-788): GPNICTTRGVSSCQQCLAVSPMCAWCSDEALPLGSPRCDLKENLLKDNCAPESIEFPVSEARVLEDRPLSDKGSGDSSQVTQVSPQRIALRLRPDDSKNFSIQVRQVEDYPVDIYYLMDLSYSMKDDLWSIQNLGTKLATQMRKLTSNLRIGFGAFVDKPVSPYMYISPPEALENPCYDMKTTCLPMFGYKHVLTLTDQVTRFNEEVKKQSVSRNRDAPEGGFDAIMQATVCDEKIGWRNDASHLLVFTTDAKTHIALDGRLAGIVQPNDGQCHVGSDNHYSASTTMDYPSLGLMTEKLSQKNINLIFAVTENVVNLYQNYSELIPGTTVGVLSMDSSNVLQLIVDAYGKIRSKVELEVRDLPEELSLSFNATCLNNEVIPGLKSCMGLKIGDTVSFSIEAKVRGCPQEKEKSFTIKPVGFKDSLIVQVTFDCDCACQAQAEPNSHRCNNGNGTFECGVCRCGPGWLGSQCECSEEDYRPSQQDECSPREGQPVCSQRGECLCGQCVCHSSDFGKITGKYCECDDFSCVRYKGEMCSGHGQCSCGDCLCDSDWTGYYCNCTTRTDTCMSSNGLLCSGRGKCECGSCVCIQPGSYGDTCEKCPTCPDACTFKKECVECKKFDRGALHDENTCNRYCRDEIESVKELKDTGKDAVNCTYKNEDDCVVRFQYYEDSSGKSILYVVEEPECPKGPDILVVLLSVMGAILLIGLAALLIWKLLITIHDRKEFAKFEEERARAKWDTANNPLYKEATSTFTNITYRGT

Substance: cyclic-RGDyK
amount of the circular RGD peptide remaining in the body [1]: ≤ 15%

Substance: cyclo-RGDfK
fluorescence intensity in the neovascular site (neovascular site; Cy7-R-Gel 30 min after cyclo-RGDfK (1 mg/ml, 100 μL) pre-administration, 1 hour after the administration): 81431011±1373625
fluorescence intensity in the neovascular site (neovascular site; Cy7-R-Gel 30 min after cyclo-RGDfK pre-administration, 3 hours after the administration): 60269975±1267782
fluorescence intensity in the neovascular site (neovascular site; Cy7-R-Gel 30 min after cyclo-RGDfK pre-administration, 24 hours after the administration): 12763810±1927458
effect of previous administration of cyclo-RGDfK on accumulation of R-Gel in blood vessels (neovascular site; large amount of cyclo-RGDfK administered 30 min before Cy7-R-Gel): inhibits the effect of R-Gel to accumulate in blood vessels
accumulation of R-Gel in the tumoral neovascular site and the tumor site after previous cyclo-RGDfK [2]: decreased

adhesion to HUVECs treated with anti-human αV monoclonal antibody (MAB1980) (αVβ3 integrin): significantly inhibited
Substance: R-Gel: recombinant gelatin CBE3, SEQ ID NO: 1, GAP[(GXY)63]3G, 571 amino acids, 12 RGD sequences
adhesion to HUVECs (number of cells by DNA assay) (HUVECs; coated plates 0.02-2.0 μg/well, 1 hour at 37° C.): superior to fibronectin, Fibrogen, PSK, and G1917P
1-cell area of HUVEC adhering to coated plate (HUVECs; from photos, ImageJ): significantly superior to Fibrogen, PSK, and G1917P

adhesion to HUVECs treated with anti-human αV monoclonal antibody (MAB1980) (αVβ3 integrin): significantly inhibited
Substance: fibronectin
